Assays:
MCT4 = MCT4 (Homo sapiens (Human), UniProt O15427); experiment: Assay 3: MCT4-mediated lactate transport in MDA-MB-231 breast cancer cells; format: cell-based; details: MDA-MB-231 cells; lactate transport
Outline: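 MDA-MB-231 cells loaded with BCECF-AM, 5 min at 37° C, washed and resuspended in Tyrode's Solution, pH 7.4. MCT4 lactate/proton symport followed as the intracellular pH change reported by BCECF fluorescence.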

MCT1 = MCT1 (Homo sapiens (Human), UniProt P53985); experiment: Assay 4: MCT1-mediated lactate transport in BT20 breast cancer cells; format: cell-based; details: Table 27
Sequence of MCT1 (P53985 whole entry): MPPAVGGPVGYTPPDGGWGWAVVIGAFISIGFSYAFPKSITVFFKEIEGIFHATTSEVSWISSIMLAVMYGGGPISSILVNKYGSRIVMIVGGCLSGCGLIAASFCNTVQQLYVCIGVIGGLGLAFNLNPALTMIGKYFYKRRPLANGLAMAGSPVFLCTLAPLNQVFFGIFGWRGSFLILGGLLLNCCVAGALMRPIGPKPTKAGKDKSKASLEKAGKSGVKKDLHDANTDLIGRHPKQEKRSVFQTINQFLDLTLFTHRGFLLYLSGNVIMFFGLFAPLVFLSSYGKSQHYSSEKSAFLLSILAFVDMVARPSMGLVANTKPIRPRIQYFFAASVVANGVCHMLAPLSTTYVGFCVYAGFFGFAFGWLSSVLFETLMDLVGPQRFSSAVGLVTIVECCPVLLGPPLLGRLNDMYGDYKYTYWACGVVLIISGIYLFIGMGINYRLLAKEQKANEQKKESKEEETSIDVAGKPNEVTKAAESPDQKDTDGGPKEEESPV
Sequence of MCT1 (P35613 140-385 partner): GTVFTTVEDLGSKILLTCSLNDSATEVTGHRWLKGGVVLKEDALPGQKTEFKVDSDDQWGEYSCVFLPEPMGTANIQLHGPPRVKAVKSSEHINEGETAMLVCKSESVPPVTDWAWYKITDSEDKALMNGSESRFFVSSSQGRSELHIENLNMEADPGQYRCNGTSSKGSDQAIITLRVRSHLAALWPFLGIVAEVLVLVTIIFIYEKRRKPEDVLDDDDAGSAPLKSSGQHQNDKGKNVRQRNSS
Outline: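 BT20 cells loaded with BCECF-AM (30 mM DMSO stock) for 5 min at 37° C, washed and resuspended in Tyrode's Solution pH 7.4. Lactate uptake tracked via BCECF intracellular pH signal after adding 10 mM L-lactate.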

[1] = Metabolic stability in human liver microsomes (in vitro t1/2); format: in vitro ADME; details: for half-life at 2 µM: human liver microsomes 0.5 mg/mL, 2 μM compound, read-out: Human microsome t1/2, min; for Human microsome % 60 min: human liver microsomes
Description: (§1) The following are assays that may be used to evaluate the metabolic stability of compounds of Formula (I) in human, rat, or mouse microsomes. The assays follow a common procedure recited below. 1. […] Two separated experiments were performed as follows. a) With NADPH: 10 μL of 20 mg/mL liver microsomes and 40 μL of 10 mM NADPH were added to the incubations. […] The final concentration of microsomes was 0.5 mg/mL. 3. The reaction was started with the addition of 4 μL of 200 μM control compound or test compound solutions. Verapamil was used as positive control in this study. The final concentration of test compound or control compound was 2 μM. 4. Aliquots of 50 μL were taken from the reaction solution at 0, 15, 30, 45 and 60 min. […] Samples were centrifuged at 3,220 g for 40 minutes. A 90 μL aliquot of the supernatant was mixed with 90 μL of ultra-pure H2O and then used for LC-MS/MS analysis. 5. Data analysis. All calculations were carried out using Microsoft Excel. Peak areas were determined from extracted ion chromatograms. The slope value, k, was determined by linear regression of the natural logarithm of the remaining percentage of the parent drug vs. incubation time curve. The in vitro half-life (in vitro t1/2) was determined from the slope value: in vitro t1/2=−(0.693)/k.

[2] = Metabolic stability in rat liver microsomes (in vitro t1/2); format: in vitro ADME; details: for half-life at 2 µM: read-out: Rat microsome t1/2, min; for Rat microsome % 60 min: rat liver microsomes
Description: as §1

[3] = Metabolic stability in mouse liver microsomes (in vitro t1/2); format: in vitro ADME; details: for Mouse microsome t1/2, min / half-life at 2 µM: mouse liver microsomes 0.5 mg/mL, 2 μM compound; for Mouse microsome % 60 min: mouse liver microsomes; for half-life at 2 µM: read-out: Mouse microsome t1/2, min
Description: as §1

[4] = Pharmacokinetic assay in rat (IV 3 mg/kg, PO 10 mg/kg); format: in vivo; details: Male Sprague-Dawley rat; for Rat F: oral bioavailability; for Rat F / half-life: PO 10 mg/kg; for half-life / Vd: plasma; for half-life: read-out: Rat t1/2 (converted); for Vd: volume of distribution, read-out: Rat Vss
Excerpt: (§2) The following are assays that may be used to evaluate the pharmacokinetic properties of Formula (I) in mouse or rat. The assays follow a common procedure recited below.
(§3) 1. […] For PO (oral gavage), DMSO/PEG400 (10:90). Formulations freshly prepared on the day of dosing or prior to dosing. Storage at room temperature.
(§4) 2. Test Species: For Mouse: Male CD1 strain, approximately 6-8 weeks in age, approximately 20-30 g. For Rat: Male Sprague-Dawley strain, approximately 6-8 weeks in age, approximately 200-300 g.
(§5) 3. Dose Level: For IV, 3 mg/kg. For PO, 10 mg/kg.
(§6) 4. Number of animals: 3 per assay.
(§7) 5. PK time points: For IV (plasma): 5 min, 15 min, 1, 2, 4, 6, 8, 24 h post dose. For PO (plasma): 15 min, 30 min, 1, 2, 4, 6, 8, 24 h post dose.
(§8) 6. Blood Sample Collection and Processing. Blood was collected (˜0.2 mL per time point) from jugular vein. Blood of each sample was transferred into plastic micro centrifuge tubes containing anticoagulant of EDTA-K2. Blood samples were centrifuged at 2,000 g for 5 minutes at 4° C. to obtain plasma.
(§9) 7. Samples Analysis: Plasma samples were analyzed using LC/MS/MS method, and pharmacokinetic parameters (half-life: t1/2; oral bioavailability: F; volume of distribution: Vss).

[5] = Adjuvant-induced arthritis model in rat: Difference of Weight Bearing test (DWB); format: in vivo; details: SD rat, CFA-induced arthritis; PO 3 days post CFA; compared to Dexamethasone
[6] = Adjuvant-induced arthritis model in rat: Mechanical Allodynia test (MA, Von Frey); format: in vivo; details: SD rat, CFA-induced arthritis; PO 3 days post CFA; compared to Dexamethasone
[7] = Pharmacokinetic assay in mouse (IV 3 mg/kg, PO 10 mg/kg); format: in vivo; details: Male CD1 mouse; for Mouse F: oral bioavailability; for Mouse F / half-life: PO 10 mg/kg; for half-life / Vd: plasma; for half-life: read-out: Mouse t1/2 (converted); for Vd: volume of distribution, read-out: Mouse Vss
Excerpt: as §2, §3, §4, §5, §6, §7, §8, §9

[8] = rat liver microsomes 0.5 mg/mL, 2 μM compound

Sequence of MCT4 (O15427 whole entry, looked up): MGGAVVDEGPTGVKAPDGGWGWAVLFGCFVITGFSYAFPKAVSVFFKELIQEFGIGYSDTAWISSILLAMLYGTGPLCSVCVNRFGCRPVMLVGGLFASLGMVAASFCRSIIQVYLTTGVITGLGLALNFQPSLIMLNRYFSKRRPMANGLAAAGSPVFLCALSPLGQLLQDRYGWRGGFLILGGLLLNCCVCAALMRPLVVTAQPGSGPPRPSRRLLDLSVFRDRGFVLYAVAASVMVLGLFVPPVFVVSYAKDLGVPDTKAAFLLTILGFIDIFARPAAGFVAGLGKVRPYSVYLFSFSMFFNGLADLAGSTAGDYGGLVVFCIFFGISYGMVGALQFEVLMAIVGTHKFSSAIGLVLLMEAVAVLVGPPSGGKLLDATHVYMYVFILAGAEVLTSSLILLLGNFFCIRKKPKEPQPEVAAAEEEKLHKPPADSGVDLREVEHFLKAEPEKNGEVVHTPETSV
Sequence of MCT4 (P35613 whole entry partner, looked up): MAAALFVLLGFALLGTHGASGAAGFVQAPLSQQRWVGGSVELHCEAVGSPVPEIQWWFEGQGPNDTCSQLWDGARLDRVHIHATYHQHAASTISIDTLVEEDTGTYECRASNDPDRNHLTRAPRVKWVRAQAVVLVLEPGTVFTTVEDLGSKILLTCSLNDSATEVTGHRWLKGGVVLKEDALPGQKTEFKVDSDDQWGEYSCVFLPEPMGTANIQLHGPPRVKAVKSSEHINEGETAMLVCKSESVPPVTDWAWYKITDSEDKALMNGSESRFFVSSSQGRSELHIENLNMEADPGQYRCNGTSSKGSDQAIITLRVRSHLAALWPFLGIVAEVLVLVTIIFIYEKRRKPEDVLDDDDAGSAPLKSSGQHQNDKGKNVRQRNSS

Row | IC50 (MCT4) [nM] | IC50 (MCT1) [nM] | half-life at 2 µM [1] [h] | Human microsome % 60 min [1] [%] | half-life at 2 µM [2, 8] [h] | Rat microsome % 60 min [2] [%] | Mouse microsome t1/2, min [3] | Mouse microsome % 60 min [3] [%] | Rat F [4] [%] | half-life [4] [h] | Vd [4] [L/kg] | half-life at 2 µM [3] [h] | Mouse F [7] [%] | half-life [7] [h] | Vd [7] [L/kg] | Rat microsome t1/2, min [2, 8] | SMILES | Difference in Weight Bearing, Minimal Efficacious Dose [5] [mg/kg] | Mechanical Allodynia (Von Frey), Minimal Efficacious Dose [6] [mg/kg]
1 | 2.4 | 20000 | 3 | 78 | 1.22 | 57 | – | 43 | 55 | 3.6 | 3.6 | 0.817 | 57 | 1.9 | 1.5 | – | CCOc1ccccc1Cn1nc(COC(C)(C)C(=O)O)cc1-c1cc(OC)cc(OC)c1 [Example 211] | – | –
2 | 5.9 | 31000 | 2.17 | 71 | 6.58 | 91 | – | 96 | 94 | 3.1 | 1.3 | 12.8 | 100 | 4.4 | 2 | – | CCn1ncc2ccc(-c3cc(COC(C)(C)C(=O)O)nn3-c3ccccc3N3CCC3)cc21 [Example 228, 2-([1-(2-(Azetidin-1-yl)phenyl]-5-(1-ethyl-1H-indazol-6-yl)-1H-pyrazol-3-yl]-methoxy)-2-methylpropanoic acid] | – | –
3 | 3.1 | 32000 | 1.58 | 65 | 1.82 | 69 | – | 81 | 52 | 4.7 | 1.7 | 2.8 | – | – | – | – | CCCn1ncc2ccc(-c3cc(COC(C)(C)C(=O)O)nn3-c3ccccc3N3CCC3)cc21 [Example 246, 2-([1-[2-(Azetidin-1-yl)phenyl]-5-(1-propyl-1H-indazol-6-yl)-1H-pyrazol-3-yl]methoxy)-2-methylpropanoic acid] | – | –
4 | 5.6 | 98000 | 3.02 | 77 | 3.02 | 83 | – | 63 | 98 | 3 | 0.38 | 1.55 | – | – | – | – | COc1cc(OC)cc(-c2cc(COC(C)(C)C(=O)O)nn2-c2ccccc2N2CCC2)c1 [Example 251, 2-((1-(2-(Azetidin-1-yl)phenyl)-5-(3,5-dimethoxyphenyl)-1H-pyrazol-3-yl)methoxy)-2-methylpropanoic acid] | – | –
5 | 0.35 | 19000 | 21.6 | 96 | – | 103 | ∞ | 102 | 76 | 2.7 | 1.6 | – | 76 | 3.6 | 2.8 | ∞ | CCn1ncc2ccc(-c3cc(CO[C@@](C)(CC)C(=O)O)nn3Cc3ccccc3Cl)cc21 [Example 257, (S)-2-((1-(2-chlorobenzyl)-5-(1-ethyl-1H-indazol-6-yl)-1H-pyrazol-3-yl)methoxy)-2-methylbutanoic acid] | – | –
6 | 1 | 58000 | – | – | – | – | – | – | – | – | – | – | 100 | 3.3 | 1.3 | – | CCn1ncc2ccc(-c3cc(CO[C@](C)(CC)C(=O)O)nn3-c3ccccc3N3CCC3)cc21 [Example 269, (2R)-2-([1-[2-(Azetidin-1-yl)phenyl]-5-(1-ethyl-1H-indazol-6-yl)-1H-pyrazol-3-yl]methoxy)-2-methylbutanoic acid] | – | –

More lines, now with the values behind:

Row | SMILES | IC50 (MCT4) [nM] | IC50 (MCT1) [nM] | half-life at 2 µM [1] [h] | Human microsome % 60 min [1] [%] | half-life at 2 µM [2, 8] [h] | Rat microsome % 60 min [2] [%] | Mouse microsome t1/2, min [3] | Mouse microsome % 60 min [3] [%] | Rat F [4] [%] | half-life [4] [h] | Vd [4] [L/kg] | half-life at 2 µM [3] [h] | Mouse F [7] [%] | half-life [7] [h] | Vd [7] [L/kg] | Rat microsome t1/2, min [2, 8] | Difference in Weight Bearing, Minimal Efficacious Dose [5] [mg/kg] | Mechanical Allodynia (Von Frey), Minimal Efficacious Dose [6] [mg/kg]
7 | Cc1ccccc1-n1nc(COC(C)(C)C(=O)O)cc1-c1cccc(OC2CCC2)c1 [Example 161, 2-([5-(3-Cyclobutoxyphenyl)-1-(2-methyl-phenyl)-1H-pyrazol-3-yl]methoxy)-2-methylpropanoic acid] | 3.3 | 22000 | 3.23 | 82 | 4.32 | 80 | ∞ | 99 | 61 | 5.7 | 0.32 | – | – | – | – | – | ≤10 | ≤10
8 | Cn1ncc2cccc(-n3nc(COC(C)(C)C(=O)O)cc3-c3cccc(OCC(C)(C)C)c3)c21 [Example 167, 2-([5-[3-(2,2-dimethylpropoxy)phenyl]-1-(1-methyl-1H-indazol-7-yl)-1H-pyrazol-3-yl]-methoxy)-2-methylpropanoic acid] | 0.59 | 36000 | 4.17 | 84 | 1.23 | 72 | – | 97 | 72 | 2.2 | 1.2 | 7.17 | 24 | 1.7 | 2.6 | – | – | –
9 | CC(C)(OCc1cc(-c2cccc(OC3CCC3)c2)n(-c2ccccc2Cl)n1)C(=O)O [Example 175, 2-([1-(2-Chlorophenyl)-5-(3-cyclobutoxy-phenyl)-1H-pyrazol-3-yl]methoxy)-2-methylpropanoic acid] | – | – | 3.53 | 83 | 5.25 | 87 | – | 94 | 48 | 4.2 | 0.4 | 11.8 | – | – | – | – | >10 | >10
10 | COc1cc(OC)cc(-c2cc(COC(C)(C)C(=O)O)nn2-c2ccccc2Cl)c1 [Example 179, 2-([1-(2-Chlorophenyl)-5-(3,5-dimethoxy-phenyl)-1H-pyrazol-3-yl]methoxy)-2-methylpropanoic acid] | 13 | > 100000 | 10.7 | 93 | 5.3 | 85 | ∞ | 98 | 76 | 2.2 | 0.3 | – | – | – | – | – | ≤10 | <10
11 | CCOc1cc(OCC)cc(-c2cc(COC(C)(C)C(=O)O)nn2-c2ccccc2Cl)c1 [Example 180, 2-([1-(2-Chlorophenyl)-5-(3,5-diethoxy-phenyl)-1H-pyrazol-3-yl]methoxy)-2-methylpropanoic acid] | 2.9 | 28000 | 4.6 | 88 | 38.2 | 98 | ∞ | 103 | 49 | 4.4 | 0.39 | – | – | – | – | – | >10 | >10

— patent publication US10214492B2, “Heterocyclic inhibitors of MCT4” (Vettore, LLC, priority 2016, dated 2019)
